Test results as given in patent US12233089B2, “Foods to promote better health and/or to maintain homeostasis and method of production thereof” (Vector Vitale IP LLC, priority 2021, dated 2025).
Marks after values point to notes of the source that are not given here.

What was measured:
RNA and DNA synthesis = test: Inhibition of RNA and DNA synthesis; type: cell-based
S. aureus ATCC 25923 [1] = test: Minimum bactericidal concentration (MBC), S. aureus; type: cell-based
Protocol: (§1) To evaluate the bactericidal action of the antibacterial composition based on light isotope ^64Zne the minimum bactericidal concentration (MBC) was determined by plating out 0.1 ml of the contents of each tube containing the antibacterial composition on Mueller-Hinton medium. The incubation was at 37° C. for 24 h.
(§2) The MBC of the test samples was determined as the lowest concentration at which there was no growth on Mueller-Hinton agar medium.
(§3) The conditions of the experiment were like those for Zn-64 compound.

E. coli ATCC 25922 [2] = test: Minimum bactericidal concentration (MBC), E. coli; type: cell-based
Protocol: as §1, §2, §3

P. aeruginosa ATCC 27853 [3] = test: Minimum bactericidal concentration (MBC), P. aeruginosa; type: cell-based
Protocol: as §1, §2, §3

P. aeruginosa ATCC 27853 [4] = test: MIC (bacteriostatic activity), P. aeruginosa; type: cell-based; conditions: for MIC: Table 5
Excerpt: as §3

S. aureus ATCC 25923 [5] = test: MIC (bacteriostatic activity), S. aureus; type: cell-based; conditions: Table 5
Excerpt: as §3

E. coli ATCC 25922 [6] = test: MIC (bacteriostatic activity), E. coli; type: cell-based; conditions: Table 5
Excerpt: as §3

influenza virus = test: In vitro reproduction of influenza virus; type: cell-based
herpes virus = type: cell-based; conditions: in vitro
[7] = tested on: BVDV—bovine viral diarrhea virus; type: cell-based; conditions: in vitro

Compound: NC(CCC(=O)[O-])C(=O)[O-].[64Zn+2] (stereo not shown) [^64Zne glutamate]
- RNA and DNA synthesis (RNA and DNA synthesis): Inhibition
- MBC (S. aureus ATCC 25923 [1]; 37° C. 24 h, Table 4): 0.046* mcg ^64Zne/ml
- MBC (E. coli ATCC 25922 [2]; 37° C. 24 h, Table 4): 0.37* mcg ^64Zne/ml
- MBC (P. aeruginosa ATCC 27853 [3]; 37° C. 24 h, Table 4): >750 mcg ^64Zne/ml
- bacteriostatic activity (in words) (P. aeruginosa ATCC 27853 [4]): best results

Compound: O=S(=O)([O-])[O-].[64Zn+2] [^64Zne sulfate]
- MBC (S. aureus ATCC 25923 [1]; 37° C. 24 h, Table 4): 0.37* mcg ^64Zne/ml
- MBC (S. aureus ATCC 25923 [1]; Table 6): 0.3662 mcg zinc/ml
- MBC (E. coli ATCC 25922 [2]; 37° C. 24 h, Table 4): 1.46* mcg ^64Zne/ml
- MBC (E. coli ATCC 25922 [2]; Table 6): 1.4648 mcg zinc/ml
- MBC (P. aeruginosa ATCC 27853 [3]; 37° C. 24 h, Table 4): 375 mcg ^64Zne/ml
- MBC (P. aeruginosa ATCC 27853 [3]; Table 6): 375 mcg zinc/ml
- MIC (S. aureus ATCC 25923 [5]): 0.366 zinc mcg/ml
- MIC (E. coli ATCC 25922 [6]): 0.0916 zinc mcg/ml
- MIC (P. aeruginosa ATCC 27853 [4]): 46.875 zinc mcg/ml

Compound: NC(CCC(=O)[O-])C(=O)[O-].[64Zn+2] (stereo not shown) [zinc-64 light isotope glutamate]
- reproduction of influenza virus (influenza virus): effectively inhibited
- reproduction of herpes virus (herpes virus): effectively inhibited
- reproduction of surrogate model of HCV (BVDV) virus [7]: effectively inhibited

Compound: Zn64 EDDA
- bacteriostatic activity (in words) (P. aeruginosa ATCC 27853 [4]): best results
- assessment of cytotoxicity and antiviral activity for anti-EBV infection (Epstein-Barr virus): most promising

Compound: ^64Zne EDDS
- MBC (S. aureus ATCC 25923 [1]; 37° C. 24 h, Table 4): 0.73* mcg ^64Zne/ml
- MBC (S. aureus ATCC 25923 [1]; Table 6): 0.7324 mcg zinc/ml
- MBC (E. coli ATCC 25922 [2]; 37° C. 24 h, Table 4): 2.93* mcg ^64Zne/ml
- MBC (E. coli ATCC 25922 [2]; Table 6): 2.9296 mcg zinc/ml
- MBC (P. aeruginosa ATCC 27853 [3]; 37° C. 24 h, Table 4): 375 mcg ^64Zne/ml
- MBC (P. aeruginosa ATCC 27853 [3]; Table 6): 375 mcg zinc/ml
- MIC (S. aureus ATCC 25923 [5]): 0.73 zinc mcg/ml
- MIC (E. coli ATCC 25922 [6]): 0.18 zinc mcg/ml
- MIC (P. aeruginosa ATCC 27853 [4]): 5.86 zinc mcg/ml
